Experimental data published in article PMC9436819 (JACC: Basic to Translational Science, 2022).
“Also recorded” adds a separate entry of the source.

What was measured:
Format in all cases: in vivo, human
[1] = Plasma pharmacokinetics in the CYP2D6 poor metabolizer cohort
Method: CYP2D6 genotypes were determined at screening for all study participants; those identified as CYP2D6-PMs were excluded from the SAD and MAD cohorts but were invited to participate in the CYP2D6-PM cohort. The first individual in the CYP2D6-PM cohort was dosed after the SAD 25-mg cohort (Figure 1). […] Nine participants were randomized (7:2), with a sentinel dosing group consisting of the first 2 participants treated. For all study groups, blood samples for PK assessment were obtained predose, up to 12 times daily on day 1, and then at regular intervals throughout the study (see Supplemental Appendix for details). Standard noncompartmental methods were used to calculate PK parameters using Phoenix WinNonlin, version 7.0; actual sample collection times were used.

[2] = Plasma pharmacokinetics in the food-effect cohort; conditions: single 10 mg; for CL/F / Vd/F / half-life: arithmetic mean ± SD; for Vd/F: read-out: Vz/F; for half-life: read-out: t½ (converted); for AUC(0-inf) / Cmax / AUC: geometric mean (geometric CV%); for AUC: read-out: AUC24
Text: Participants were randomized in a 1:1 ratio to 1 of 2 sequences: fasted/fed or fed/fasted. […] For all study groups, blood samples for PK assessment were obtained predose, up to 12 times daily on day 1, and then at regular intervals throughout the study (see Supplemental Appendix for details). Standard noncompartmental methods were used to calculate PK parameters using Phoenix WinNonlin, version 7.0; actual sample collection times were used.

healthy adults = assay: Echocardiography (core laboratory) pharmacodynamics, MAD cohorts
Method: The MAD cohorts also used a randomized, double-blind, placebo-controlled, sequential design.
For PD assessments of LVEF, echocardiograms for the SAD and MAD cohorts were interpreted by the echocardiography core laboratory and used for all data analysis and dose-level review decisions, and immediate local interpretation of the echocardiograms was performed for safety monitoring. […] Echocardiograms on day 3 (48 hours after dosing) were obtained only if the 24-hour LVEF had not returned to near or above baseline, as determined by the investigator. In the MAD cohorts, echocardiograms were obtained on day -1; predose on day 1; at 1.5 hours postdose on days 2, 4, and 9; and at 1.5, 24, and 72 hours postdose on day 14 (for the 5-mg and 10-mg cohorts) or on day 17 (for the 7.5-mg cohort). Echocardiograms were obtained 3 days after the last dose (on day 17 or 20) only if the participant’s prior LVEF was not near or above baseline, as determined by the investigator.
Using echocardiography instrumentation certified for clinical use, echocardiographic images were obtained from standard views based on American Society of Echocardiography recommendations for chamber quantification.[19] To obtain the LVEF, the endocardial borders of 3 different cardiac cycles were traced at both end diastole and end systole from the apical 4- and 2-chamber views and LV end-diastolic volume (LVEDV) and LV end-systolic volume (LVESV), calculated using the Simpson’s method of discs algorithm. Ejection fraction was calculated in the standard manner: LVEF = (LVEDV − LVESV)/LVEDV. The intraobserver variability (coefficient of variation) for LVEF was 8%.
All participants who received ≥1 dose of the study drug and had ≥1 predose and ≥1 postdose echocardiographic measurements were included in the PD analysis set. […] Descriptive statistics of the echocardiographic parameters were generated using SAS, version 9.3 or higher. Dose-response analysis was performed using analysis of covariance to identify the least-squares mean difference (aficamten minus placebo), as described in the Supplemental Appendix. Analyses of concentration “bin” and exposure-response were also performed using analysis of covariance, as described in the Supplemental Appendix. SAS PROC MIXED was used for all comparative analyses.
Statistical A nalysis of P harmacodynamic (PD) P aram eters
To analyze the impact of drug dose on echocardiographic parameters in the SAD and MAD
cohorts, an inferential analysis was conducted on t he PD analysis set using linear mixed models
for rep eated -measur es an alysis of covarian ce ( AN COVA). The A NCOVA used baseline valu e as
a covariate, included treatment, time-point, and time-point-by- treatment interaction as fixed
effects, and ch ange f rom baseline as the d ependent variable. Th e unstructur ed varian ce-
covarian ce structu re w as used, and the model acco unted for the time- point r epeated m easur es.
The ANCOVA analysis was conducted separately for each study part and f or each PD p aram eter .
The least-squares means, the difference in least squares means (active minus placebo), and the
associated 2-sided 95% CIs were presented for each comparison.
Concentration bin analysis
An additional inferential analysis was performed i n the SAD and MAD cohorts , to evaluate the
analysis set. A concentrat ion bin ANCOVA was conducted using linear mi xed models for
repeat ed-measures an aly ses with concentr ation bin group as a fix ed ef fect, baseline PD
parameters as a covari ate, change f rom baseline as the dependent v ariable, and a random
intercept to adjust for the repeat ed measures. The unstructured variance-co variance structur e was
used.Plasma concentr ations of aficamten wer e paired with coincident PD parameters. The
ANCOVA compared the change in PD parameters between each bin versus the pooled placebo
group. The least-squ ares means, the differen ce in l east squares m eans (bin group minus placebo), […]

[3] = CYP2D6 poor metabolizers, single 10 mg, arithmetic mean ± SD, n = 7
[4] = human, plasma, oral, CYP2D6 poor metabolizers, single 10 mg, geometric mean (geometric CV%), n = 7
[5] = human, plasma, oral, 10 mg, Fasted, n = 4
[6] = human, plasma, oral, 10 mg, Fasted, n = 10
[7] = human, plasma, oral, 10 mg, Fed, n = 7

Work on CCc1nc(-c2ccc3c(c2)CC[C@H]3NC(=O)c2cnn(C)c2)no1 [Aficamten] yielded a CL/F [1, 3] of 3.6 ± 1.4 L/h, a t½ [1, 3] of 110 h and a half-life ([1]; human, plasma, oral, 10 mg, CYP2D6 poor metabolizers, single 10 mg, arithmetic mean ± SD, n = 7, read-out: t½ (converted)) of 110 ± 47.3 h. The Vd/F ([1]; human, plasma, oral, CYP2D6 poor metabolizers, single 10 mg, arithmetic mean ± SD, n = 7, read-out: Vz/F) was 506 ± 84.4 L, the AUC(0-inf) [1, 4] was 2970 ng·h/mL and the Cmax [1, 4] was 57.3 ng/mL. For the same compound, the AUC ([1]; human, plasma, oral, CYP2D6 poor metabolizers, single 10 mg, geometric mean (geometric CV%), n = 7, read-out: AUC24) was 495 ng·h/mL, the Tmax ([1]; human, plasma, oral, CYP2D6 poor metabolizers, single 10 mg, median (range), n = 7) was 1 h and the “Effect of CYP2D6 poor metabolizer phenotype on the PK” value ([1]; single 10 mg) was “not affected; also recorded: no effect”. For the same compound, the “Plasma mean concentrations in CYP2D6 poor metabolizers versus extensive metabolizers” value ([1]; single 10-mg dose) was “Modestly lower”, the CL/F ([2]; Fasted, n = 4) was 2.8 ± 0.6 L/h and the CL/F ([2]; Fed, n = 7) was 3.1 ± 0.9 L/h. The Vd/F [2, 5] was 346 ± 134 L, the half-life [2, 5] was 84.4 ± 16.4 h and the AUC(0-inf) [2, 5] was 3670 ng·h/mL. For the same compound, the Cmax [2, 6] was 50.6 ng/mL, the AUC [2, 6] was 601 ng·h/mL and the Tmax ([2]; human, plasma, oral, 10 mg, Fasted, median (range), n = 10) was 2.3 h. For the same compound, the Cmax ([2]; human, plasma, oral, 10 mg, Fed (high-fat breakfast), n = 12) was 65 ng/mL, the Vd/F [2, 7] was 340 ± 100 L and the half-life [2, 7] was 78 ± 8.1 h. The AUC(0-inf) [2, 7] was 3410 ng·h/mL, the AUC ([2]; human, plasma, oral, 10 mg, Fed, n = 12) was 631 ng·h/mL and the “Effect of food on the PK” value ([2]; fed vs fasted) was “not affected; also recorded: no significant effect; also recorded: no effect of food”. For the same compound, the “Increase of Cmax when taken with food” value ([2]; fed vs fasted) was “approximately 30%”, the “Participants with absolute reduction in LVEF of ≥5% from baseline” value (healthy adults; MAD 7.5 mg once daily, 1 of 6) was 17% and the “Participants with absolute reduction in LVEF of ≥10% from baseline” value (healthy adults; MAD 10 mg once daily) was 33%. The “Participants with reduction in LVEF ≥10%” value (healthy adults; MAD 10 mg once daily) was 2 participants, the “Participants who met the stopping criteria based on echocardiography results” value (healthy adults; MAD 10 mg once daily for 14 days) was 2 participants and the “Placebo-corrected reduction in LVEF (least-squares mean difference)” value (healthy adults; MAD 10 mg once daily for 14 days, […] postdose on day 14, P = 0.21) was 3.2%. The “Participants with absolute reduction in LVEF of ≥5% from baseline” value (healthy adults; MAD 10 mg once daily, 2 of 6) was 33%, the “Largest mean reduction in LVEF from baseline” value (healthy adults; MAD 10 mg, […] postdose on day 14) was 5.0% and the “Suppression of LVEF in most participants” value (healthy adults; MAD cohorts, plasma concentrations of ≤180 ng/mL) was “minimal suppression of LVEF”. For the same compound, the “Relationship of LVEF to plasma concentration” value (healthy adults; MAD cohorts, bin concentration analysis or linear regression analysis) was “did not reach statistical significance” and the “Reduction in LVEF to <50%” value (healthy adults; any of the MAD cohorts, per core laboratory assessment) was “not observed”.
